Assay results reported in patent publication US20170296568A1, “SIRTUIN GENE POTENTIATOR, AND PHARMACEUTICAL PRODUCT, COSMETIC PRODUCT, AND FOOD PRODUCT USING SAME” (MORISHITA JINTAN CO., LTD., priority 2012, published 2017).

Key:
sirtuin gene hSIRT1 = test: Expression level of endogenous sirtuin gene hSIRT1 in Caco-2 cells (quantitative PCR, relative to β-actin); type: cell-based, human; settings: 10 μM, 2 days, qPCR normalised to β-actin, FIG. 2
Protocol: Caco-2 cells were plated at 3.0×10^5 cells for a 5-mL dish. After 24 hours, each polyphenol was added to be 10 μM. Note that as a negative control, none of polyphenol nor terpenoid was added, and as a positive control, 10 μM resveratrol was added. At 2 days after this treatment, RNA was collected.
The total RNA was prepared using High Pure RNA Isolation Kit (manufactured by Roche, Indianapolis, Ind., USA). For the procedures from the total RNA preparation to the reverse transcription, the reagents and tools used were RNase-free. Cells were prepared in a sub-confluent to confluent condition in a cell culture dish (Greiner bio-one, Monroe, N.C., USA). The medium was completely removed, 200 μL of PBS, and 400 μL of cell lysis solution, which was contained in High Pure RNA Isolation Kit, were added, and the entire dish was well covered by the cell lysis solution. When the viscosity of the cell lysis solution was decreased, the cell lysis solution was collected into a 1.5-mL sample tube. The collected sample was well suspended. A filter tube and a collection tube, which were contained in High Pure RNA Isolation Kit, were assembled, and the sample was pipetted into a buffer reservoir in the upper portion of the filter tube, and was centrifuged at 8,000×g for 15 seconds. The flowthrough liquid into the collection tube was discarded, and the filter tube and the collection tube were again assembled. Then, 90 μL of DNase incubation buffer per sample was pipetted into a sterile reaction tube, and 10 μL of DNase I was added into the tube and mixed. The mixture liquid was pipetted into the buffer reservoir in the upper portion of the filter tube, was added on the glass fiber fleece in the filter tube, and was incubated at room temperature for 15 minutes. Then, 500 μL of wash buffer I, which was contained in High Pure RNA Isolation Kit, was added to the buffer reservoir in the upper portion of the filter tube, and was centrifuged at 8,000×g for 15 seconds. The flowthrough liquid into the collection tube was discarded, and the filter tube and the collection tube were again assembled. Then, 500 μL of wash buffer II was added to the buffer reservoir in the upper portion of the filter tube, and centrifugation was performed at 8,000×g for 15 seconds. The liquid discharged to the collection tube was discarded, and the filter tube and the collection tube were again assembled. Then, 200 μL of wash buffer II was added to the buffer reservoir in the upper portion of the filter tube, and centrifugation was performed at 13,000×g for 2 minutes, after which a remaining wash buffer in the filter tube was removed. The collection tube was discarded, the filter tube was inserted into a sterile reaction tube, and 50 μL of elution buffer was added in the filter tube, and centrifugation was performed at 8,000×g for 1 minute. The eluate obtained by the procedures was taken as an RNA solution. The concentration of RNA in the solution was calculated based on the light absorbance at 260 nm with a NanoDrop 2000/2000c spectrophotometer (Thermo Scientific, Waltham, Mass., USA), for use in subsequent experiments.
Then, 5 pmol of oligo(dT)20 primer was added to 1.0 μg of total RNA extracted from the cells, and sterile water was further added thereto so that the total liquid amount was 13 μL. Heat treatment was performed using a thermal cycler (Peltier Thermal Cycler PTC-200, MJ Research, Watertown, Mass., USA) at 65° C. for 5 minutes, and the resultant was immediately transferred in ice to quench it. During this treatment, the reverse transcriptase reaction program was advanced to the 42° C. stage and was temporarily stopped. A mixture solution obtained by mixing 4 μL of reverse transcriptase reaction buffer solution, 2 μL of 1 mM dNTPs (Amershan Pharmacia Biotech., Buckinghamshire, UK), and 0.5 μL of reverse transcriptase ReverTra Ace (TOYOBO, Osaka, Japan) per sample was added to and gently mixed with the sample on ice after 5 minutes. […]

hSIRT1 promoter = test: Enhancing the hSIRT1 promoter: EGFP fluorescence intensity in HaCaT-hSIRT1p-EGFP cells by flow cytometry; type: cell-based, human; settings: 10 μM in DMSO, 24 hours after addition, FIG. 4
Protocol: HaCaT cells (human epidermis keratinocyte-derived cell lines, provided by Dr. Takumi Miura, National Center for Child Health and Development) were cultured using a Dalbecco's Modified Eagle Medium (DMEM) medium (Nissui Pharmaceutical Co., Ltd, Tokyo) supplemented with 10% FBS, 100,000 U/L penicillin (Meiji, Tokyo), 100 mg/L streptomycin (Meiji), and 2.0 g/L NaHCO3. These cells were subcultured at 37° C. in the presence of 5% CO2.
HaCaT cell lines (HaCaT-hSIRT1p-EGFP cells) into which the vector (phSIRT1-EGFP) described in Reference Example 1 was integrated were prepared as below.
The HaCaT cells were disseminated at 9.0×10^5 in a φ60-mm dish, and were cultured in 10% FBS supplemented DMEM medium. Cells as a control were prepared in a similar manner. After 24 hours, 8 μg of phSIRT1p-EGFP was added to and mixed with 300 μL of DMEM medium, 24 μL of Hilymax (manufactured by Dojindo Laboratories), which is a transfection reagent, was further added and mixed therewith, and the mixture was incubated for 15 minutes at room temperature. Subsequently, the total amount was added to the HaCaT cells. After 3 hours, the medium was replaced by 10% FBS supplemented DMEM medium.
At 24 hours after the gene introduction, the medium was replaced by 10% FBS supplemented DMEM medium containing 750 μg/mL of G418 (Wako Pure Chemical Industries, Ltd.). After visually confirming under a microscope that all the control non-treated HaCaT cells were killed, the subculture was continued using 10% FBS supplemented DMEM containing 150 μg/mL of G418.
It was confirmed with flow cytometry that the phSIRT1p-EGFP vector was reliably transferred inro the cells after the subculture. The above-described cells and the control non-treated HaCaT cells were plated at 7.0×10^5 per a φ60-mm dish, respectively. After 24 hours, the cells were picked up and well suspended in 2 mL of 5% FBS supplemented DMEM medium, and were filtered through a Nylon Mesh (Kyoshin Rikoh Inc., Japan), and the EGFP fluorescence intensity thereof was measured with a Flow Cytometer (EPICS, BeckmanCoulter). The analysis was performed using software FlowJo (Tree Star, Ashland Oreg.), so that the EGFP fluorescence intensity of each cell was represented as a histogram.
HaCaT-hSIRT1p-EGFP cells were plated at 1.7×10^6 cells in a φ60-mm dish (as measured by flow cytometry) or at 2.0×10^4 cells/well in a 96-well plate (as measured by an IN Cell Analyzer 1000). After 24 hours, 10 μM of each polyphenol or terpenoid dissolved in DMSO (Wako Pure Chemical Industries, Ltd.) was added thereto. Note that as a negative control, the same amount of DMSO was added without polyphenol or terpenoid, and as a positive control, 10 μM resveratrol was added. At 24 hours after the addition of the various polyphenols or terpenoids or the controls, the fluorescence intensity was measured by flow cytometry.

O=C1O[C@H]2[C@@H]3OC(=O)c4cc(O)c(O)c(O)c4-c4c(O)c(O)c5oc(=O)c6c(c(O)c(O)c7oc(=O)c4c5c76)-c4c(cc(O)c(O)c4O)C(=O)OC[C@H]3OC(O)[C@@H]2OC(=O)c2cc(O)c(O)c(O)c2-c2c1cc(O)c(O)c2O (mixture of isomers) [punicalagin]
relative gene expression level of hSIRT1 (sirtuin gene hSIRT1): hSIRT1 transcription enhancing effect was observed
EGFP fluorescence intensity (hSIRT1 promoter activity) (hSIRT1 promoter): hSIRT1 expression effect on skin epidermis cells was seen

O=C1OC[C@H]2OC(O)[C@H](O)[C@@H](O)[C@@H]2OC(=O)c2cc(O)c(O)c(O)c2-c2c(O)c(O)c3oc(=O)c4c(c(O)c(O)c5oc(=O)c2c3c54)-c2c1cc(O)c(O)c2O (mixture of isomers) [punicalin]
relative gene expression level of hSIRT1 (sirtuin gene hSIRT1): hSIRT1 transcription enhancing effect was observed
EGFP fluorescence intensity (hSIRT1 promoter activity) (hSIRT1 promoter): hSIRT1 expression effect on skin epidermis cells was seen

O=c1c(O)c(-c2ccc(O)c(O)c2)oc2cc(O)ccc12 [fisetin]
relative gene expression level of hSIRT1 (sirtuin gene hSIRT1): hSIRT1 transcription enhancing effect was observed
EGFP fluorescence intensity (hSIRT1 promoter activity) (hSIRT1 promoter): hSIRT1 expression effect on skin epidermis cells was seen

C[C@@]12C=Cc3occc3[C@H]1CC[C@@]13C[C@@H](CC[C@H]12)[C@@](O)(CO)C3 [kahweol]
relative gene expression level of hSIRT1 (sirtuin gene hSIRT1): hSIRT1 transcription enhancing effect was observed
EGFP fluorescence intensity (hSIRT1 promoter activity) (hSIRT1 promoter): hSIRT1 expression effect on skin epidermis cells was seen

O=c1oc2cc(O)ccc2c2ccc(O)cc12 [urolithin A]
relative gene expression level of hSIRT1 (sirtuin gene hSIRT1): hSIRT1 transcription enhancing effect was observed
EGFP fluorescence intensity (hSIRT1 promoter activity) (hSIRT1 promoter): hSIRT1 expression effect on skin epidermis cells was seen
